Values of other authors in patent publication US20230337663A1, “AGRICULTURAL COMPOSITION” (REVOLUTION BIOTECH LLC, priority 2020, published 2023).

Details: Ecolabel Lubricant Substance Classification List

Farnesene, mixture of isomers
toxicity label: non-toxic
